Test results reported in patent US10881649B2, “Therapeutic agent or preventive agent for alopecia areata” (Toray Industries, Inc., priority 2017, dated 2021).

Tests used:
[1] = system: mouse alopecia areata model; assay: Symptom-suppressing effect on a mouse alopecia areata model (preventive protocol); format: in vivo, C3H/HeJ mice; conditions: for hair loss score (mean±standard error): Day 63, 10 mg/kg orally once daily Day 0 to Day 62, n=10, vehicle group 3.2±1.13; for range of hair loss (FIG. 1): abdomen on Day 63, compared with the disease group (vehicle treatment group), 10 mg/kg orally once daily
Experimental: The effect of cyclic amine derivative (I) or a pharmacologically acceptable salt thereof in a mouse alopecia areata model was evaluated using increase in the hair loss score as an index of worsening of symptoms. The mouse alopecia areata model was prepared by partially modifying the method by Wang et al. (Journal of Investigative Dermatology, 2015, Vol. 135, p. 2530-2532).
(§1) Female C3H/HeJ mice (CLEA Japan, Inc.) with spontaneous hair loss in 70% or more of the body surface were used as donor mice. The donor mice were euthanized by cervical dislocation, and then the inguinal, axilla, and auricular lymph nodes were aseptically removed. The lymph nodes were filtered through a 70 μm cell strainer to isolate lymphocytes. The lymphocytes were washed with Advanced RPMI media (containing 10% fetal bovine serum, 2 mM Gluta Max, and 100 U/mL penicillin streptomycin), and then suspended in Advanced RPMI media to which Human rIL-2 (Roche; final concentration of 30 U/mL), Mouse rIL-7 (R&D systems, Inc.; final concentration of 25 ng/mL), and Mouse rIL-15 (R&D systems, Inc.; final concentration of 50 ng/mL) were added so that the concentration was 2×10^6 cells/mL. The lymphocytes were seeded in 1 mL portions on 24-well plates, and 500 μL of Dynabead mouse T-activator CD3/CD28 (Life Technologies) was added, followed by culture in a CO2 incubator. Culture was performed for 6 days so that the cell density was 1.5 to 2.0×10^6 cells/mL during culture.
The day of transplantation of lymphocytes derived from donor mice was regarded as Day 0. Two days before the day of transplantation (Day −2), hair on the back, which would be a transplantation site, of 10-week old female C3H/HeJ mice without hair loss (CLEA Japan, Inc.) was removed with an electric hair clipper under isoflurane anesthesia (1.5 cm×1.5 cm). Furthermore, grouping was performed using the body weight on Day −1 as an index.
On Day 0, lymphocytes in which beads were removed with EasySep magnet (Stemcell Technologies Inc.) were collected into new tubes. The collected lymphocytes were suspended in PBS(−) so that the concentration was 10×10^7 cells/mL, filled in a 1 mL syringe with a 26G injection needle, and stored on ice until transplantation. Under isoflurane anesthesia, the filled lymphocyte suspension was intradermally injected into the hair removal site in 100 μL/body portions. […]
On Day 63, photographs of the back and the abdomen of the mice were taken under isoflurane anesthesia. The status of hair loss was evaluated by partially modifying the method by Alli et al. (Journal of Immunology, 2012, Vol. 188, p. 477-486). In other words, the ratio of the area of hair loss site to the body surface area was scored in accordance with the criteria mentioned in Table 4, and defined as the hair loss score. […]

[2] = system: mouse alopecia areata model; assay: Symptom-suppressing effect on a mouse alopecia areata model (therapeutic protocol); format: in vivo, C3H/HeJ mice; conditions: Day 91; 10 mg/kg orally once daily Day 49 to Day 90; n=6; vehicle group 9.2±0.83; Day 49 mean 3.6±0.66
Experimental: The effect of cyclic amine derivative (I) or a pharmacologically acceptable salt thereof in a mouse alopecia areata model was evaluated using increase in the hair loss score as an index of worsening of symptoms. The mouse alopecia areata model was prepared using the same method as in Example 73.
as §1, with “In other words, female” for “Female”, “The lymphocytes were seeded in 1 mL portions on 24-well plates, and 500 μL of Dynabead mouse T-activator CD3/CD28 (Life Technologies) was added, followed by culture in a CO2 incubator. Culture was performed for 6 days so that the cell density was 1.5 to 2.0×10^6 cells/mL during culture.” left out
On Day 49, grouping was performed using the mouse hair loss score calculated in the same manner as in Example 73 as an index (the hair loss score on Day 49 (mean±standard error): 3.6±0.66). […]
On Day 91, the mouse hair loss score was calculated in the same manner as in Example 73. […]

| SMILES | hair loss score (mean±standard error) [1] | range of hair loss (FIG. 1) [1] | hair loss score (mean±standard error) [2] |
| --- | --- | --- | --- |
| O=C(Nc1ccc(-c2ccccc2OC(F)(F)F)c(Cl)c1)[C@H]1CCCCN1C(=O)Cn1cnnn1 [Compound of Example 57, (R)-1-(2-(1H-tetrazol-1-yl)acetyl)-N-(2-chloro-2′-(trifluoromethoxy)-[1,1′-biphenyl]-4-yl)piperidine-2-carboxamide] | 1.8±0.88 | very smaller | 5.5±1.43 |
| CN(CC(=O)N1CCCC[C@@H]1C(=O)Nc1ccc(-c2ccccc2OC(F)(F)F)c(Cl)c1)S(C)(=O)=O [Compound of Example 29, (R)—N-(2-chloro-2′-(trifluoromethoxy)-[1,1′-biphenyl]-4-yl)-1-(2-(N-methylmethylsulfonamide)acetyl)piperidine-2-carboxamide] | 1.3±0.67 | very smaller | 4.3±1.41 |
